Assay results reported in patent US20240300932A1, “N-PHENYLIMINE DERIVATIVE AND PREPARATION METHOD AND USE THEREOF” (Guizhou University, priority 2023, published 2024).

Columns and labels:
Assay in all cases: Post-emergence herbicidal activity test (stem and leaf spray, pot culture)
Type in all cases: in vivo
Conditions in all cases: 3 weeks after spraying
Trifoliumre pensL. = tested on: Trifoliumre pensL.
In short: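 Pot-grown weeds in loam (pH 7), greenhouse at 20–30 °C, sprayed once post-emergence at the 2–3-leaf stage. Compound in acetone with Tween 80 plus methyl oleate oil (1.5 L/ha), applied at 10, 5 and 2.5 g/mu by spray tower. Effect scored 3 weeks after spraying, averaged over three repeats.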

Portulaca oleracea = tested on: Portulaca oleracea
In short: (§1)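 Greenhouse pot-grown weeds (loam, pH 7) sprayed post-emergence at 2- to 3-leaf stage with acetone/Tween 80 formulation plus 1.5 liters/ha methyl oleate, at 10, 5 and 2.5 g/mu. Fresh-weight growth control rated 3 weeks later on 0–5 grade scale.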

Echinochloa crusgalli = tested on: Echinochloa crusgalli
In short: as §1

Amaranthus retroflexus = tested on: Amaranthus retroflexus
In short: as §1

Setaria viridis = tested on: Setaria viridis
In short: as §1

Abutilon theophrasti = tested on: Abutilon theophrasti
In short: as §1

| Compound | Post-emergence herbicidal activity, Trifoliumre pensL. (grade) (Trifoliumre pensL.; dosage 2.5 g/mu) | Post-emergence herbicidal activity, Trifoliumre pensL. (grade) (Trifoliumre pensL.; dosage 5 g/mu) | Post-emergence herbicidal activity, Trifoliumre pensL. (grade) (Trifoliumre pensL.; dosage 10 g/mu) | Post-emergence herbicidal activity, P. oleracea (grade) (Portulaca oleracea; dosage 2.5 g/mu) | Post-emergence herbicidal activity, P. oleracea (grade) (Portulaca oleracea; dosage 5 g/mu) | Post-emergence herbicidal activity, P. oleracea (grade) (Portulaca oleracea; dosage 10 g/mu) | Post-emergence herbicidal activity, E. crusgalli (grade) (Echinochloa crusgalli; dosage 2.5 g/mu) | Post-emergence herbicidal activity, E. crusgalli (grade) (Echinochloa crusgalli; dosage 5 g/mu) | Post-emergence herbicidal activity, E. crusgalli (grade) (Echinochloa crusgalli; dosage 10 g/mu) | Post-emergence herbicidal activity, A. retroflexus (grade) (Amaranthus retroflexus; dosage 2.5 g/mu) | Post-emergence herbicidal activity, A. retroflexus (grade) (Amaranthus retroflexus; dosage 5 g/mu) | Post-emergence herbicidal activity, A. retroflexus (grade) (Amaranthus retroflexus; dosage 10 g/mu) | Post-emergence herbicidal activity, S. viridis (grade) (Setaria viridis; dosage 2.5 g/mu) | Post-emergence herbicidal activity, S. viridis (grade) (Setaria viridis; dosage 5 g/mu) | Post-emergence herbicidal activity, S. viridis (grade) (Setaria viridis; dosage 10 g/mu) | Post-emergence herbicidal activity, A. theophrasti (grade) (Abutilon theophrasti; dosage 2.5 g/mu) | Post-emergence herbicidal activity, A. theophrasti (grade) (Abutilon theophrasti; dosage 5 g/mu) | Post-emergence herbicidal activity, A. theophrasti (grade) (Abutilon theophrasti; dosage 10 g/mu) |
| --- | --- | --- | --- | --- | --- | --- | --- | --- | --- | --- | --- | --- | --- | --- | --- | --- | --- | --- |
| O=C1C2=C(CCCC2)C(=O)N1c1cc(OCc2nc(-c3ccc(Cl)cc3F)no2)c(Cl)cc1F [Compound A7] | 4 (Grade 4: the growth control rate is greater than or equal to 60% and less than 85%) | 5 (Grade 5: the growth control rate is greater than or equal to 85%) | 5 (Grade 5: the growth control rate is greater than or equal to 85%) | 4 (Grade 4: the growth control rate is greater than or equal to 60% and less than 85%) | 5 (Grade 5: the growth control rate is greater than or equal to 85%) | 5 (Grade 5: the growth control rate is greater than or equal to 85%) | 1 (Grade 1: the growth control rate is greater than or equal to 5% and less than 20%) | 2 (Grade 2: the growth control rate is greater than or equal to 20% and less than 40%) | 3 (Grade 3: the growth control rate is greater than or equal to 40% and less than 60%) | 5 (Grade 5: the growth control rate is greater than or equal to 85%) | 5 (Grade 5: the growth control rate is greater than or equal to 85%) | 5 (Grade 5: the growth control rate is greater than or equal to 85%) | 2 (Grade 2: the growth control rate is greater than or equal to 20% and less than 40%) | 3 (Grade 3: the growth control rate is greater than or equal to 40% and less than 60%) | 4 (Grade 4: the growth control rate is greater than or equal to 60% and less than 85%) | 5 (Grade 5: the growth control rate is greater than or equal to 85%) | 5 (Grade 5: the growth control rate is greater than or equal to 85%) | 5 (Grade 5: the growth control rate is greater than or equal to 85%) |
| CCOC(=O)CC(=O)Nc1cc(N2C(=O)C3=C(CCCC3)C2=O)c(F)cc1Cl [Compound D6, 3-((2-chloro-5-(1,3-dioxo-1,3,4,5,6,7-hexahydro-2H-isoindole-2-yl)-4-fluorophenyl)amino)-ethyl 3-oxopropanoate] | – | – | 5 (Grade 5: the growth control rate is greater than or equal to 85%) | – | – | 5 (Grade 5: the growth control rate is greater than or equal to 85%) | – | – | 3 (Grade 3: the growth control rate is greater than or equal to 40% and less than 60%) | – | – | 5 (Grade 5: the growth control rate is greater than or equal to 85%) | – | – | 3 (Grade 3: the growth control rate is greater than or equal to 40% and less than 60%) | – | – | 5 (Grade 5: the growth control rate is greater than or equal to 85%) |
| O=C1C2=C(CCCC2)C(=O)N1c1cc(OCc2nc(-c3ccccc3)no2)c(Cl)cc1F [Compound A25] | 4 (Grade 4: the growth control rate is greater than or equal to 60% and less than 85%) | 5 (Grade 5: the growth control rate is greater than or equal to 85%) | 5 (Grade 5: the growth control rate is greater than or equal to 85%) | 4 (Grade 4: the growth control rate is greater than or equal to 60% and less than 85%) | 5 (Grade 5: the growth control rate is greater than or equal to 85%) | 5 (Grade 5: the growth control rate is greater than or equal to 85%) | 1 (Grade 1: the growth control rate is greater than or equal to 5% and less than 20%) | 2 (Grade 2: the growth control rate is greater than or equal to 20% and less than 40%) | 3 (Grade 3: the growth control rate is greater than or equal to 40% and less than 60%) | 5 (Grade 5: the growth control rate is greater than or equal to 85%) | 5 (Grade 5: the growth control rate is greater than or equal to 85%) | 5 (Grade 5: the growth control rate is greater than or equal to 85%) | 2 (Grade 2: the growth control rate is greater than or equal to 20% and less than 40%) | 3 (Grade 3: the growth control rate is greater than or equal to 40% and less than 60%) | 4 (Grade 4: the growth control rate is greater than or equal to 60% and less than 85%) | 5 (Grade 5: the growth control rate is greater than or equal to 85%) | 5 (Grade 5: the growth control rate is greater than or equal to 85%) | 5 (Grade 5: the growth control rate is greater than or equal to 85%) |
| Cc1ccc(-c2noc(COc3cc(N4C(=O)C5=C(CCCC5)C4=O)c(F)cc3Cl)n2)c(Cl)c1 [Compound A15] | 5 (Grade 5: the growth control rate is greater than or equal to 85%) | 5 (Grade 5: the growth control rate is greater than or equal to 85%) | 5 (Grade 5: the growth control rate is greater than or equal to 85%) | 5 (Grade 5: the growth control rate is greater than or equal to 85%) | 5 (Grade 5: the growth control rate is greater than or equal to 85%) | 5 (Grade 5: the growth control rate is greater than or equal to 85%) | 1 (Grade 1: the growth control rate is greater than or equal to 5% and less than 20%) | 2 (Grade 2: the growth control rate is greater than or equal to 20% and less than 40%) | 3 (Grade 3: the growth control rate is greater than or equal to 40% and less than 60%) | 5 (Grade 5: the growth control rate is greater than or equal to 85%) | 5 (Grade 5: the growth control rate is greater than or equal to 85%) | 5 (Grade 5: the growth control rate is greater than or equal to 85%) | 2 (Grade 2: the growth control rate is greater than or equal to 20% and less than 40%) | 3 (Grade 3: the growth control rate is greater than or equal to 40% and less than 60%) | 4 (Grade 4: the growth control rate is greater than or equal to 60% and less than 85%) | 5 (Grade 5: the growth control rate is greater than or equal to 85%) | 5 (Grade 5: the growth control rate is greater than or equal to 85%) | 5 (Grade 5: the growth control rate is greater than or equal to 85%) |
| O=C1C2=C(CCCC2)C(=O)N1c1cc(OCc2nnc(-c3ccccc3Br)o2)c(Cl)cc1F [Compound B6] | 5 (Grade 5: the growth control rate is greater than or equal to 85%) | 5 (Grade 5: the growth control rate is greater than or equal to 85%) | 5 (Grade 5: the growth control rate is greater than or equal to 85%) | 5 (Grade 5: the growth control rate is greater than or equal to 85%) | 5 (Grade 5: the growth control rate is greater than or equal to 85%) | 5 (Grade 5: the growth control rate is greater than or equal to 85%) | 1 (Grade 1: the growth control rate is greater than or equal to 5% and less than 20%) | 2 (Grade 2: the growth control rate is greater than or equal to 20% and less than 40%) | 3 (Grade 3: the growth control rate is greater than or equal to 40% and less than 60%) | 5 (Grade 5: the growth control rate is greater than or equal to 85%) | 5 (Grade 5: the growth control rate is greater than or equal to 85%) | 5 (Grade 5: the growth control rate is greater than or equal to 85%) | 2 (Grade 2: the growth control rate is greater than or equal to 20% and less than 40%) | 3 (Grade 3: the growth control rate is greater than or equal to 40% and less than 60%) | 4 (Grade 4: the growth control rate is greater than or equal to 60% and less than 85%) | 5 (Grade 5: the growth control rate is greater than or equal to 85%) | 5 (Grade 5: the growth control rate is greater than or equal to 85%) | 5 (Grade 5: the growth control rate is greater than or equal to 85%) |
